Laboratory results as given in the supplement of paper PMC11451515.

Columns and labels:
Conditions in all cases: 48 h
[1] = test system: NOMO1; test: AUC of viability dose-response curve (% viability x log10 dose units); higher = less sensitive
Outline: (§1)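 Area under the curve was integrated by trapezoidal rule from a log-logistic fit of normalised viability, with curves exceeding full viability scaled and quality-control failures removed. The fit had four parameters over log10 doses. Viability came from CellTiter-Glo One luminescence, normalised per plate to DMSO and cell-free wells, after leukemia cells adapted to each medium (500 or 1000 cells/well, 1536-well plates) were exposed to library compounds in DMSO for 48 h at 37°C. The 11 threefold doses ran from 47 μM to 0.79 nM.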

[2] = test system: P12-Ichikawa; test: as above
Outline: as §1

[3] = test system: SEM cells; test: as above
Outline: as §1

[4] = test system: NOMO1; test: cell viability relative to DMSO control; higher = less cytotoxic
Outline: (§2)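 Viability was expressed as a per-plate percentage of DMSO wells, with cell-free wells as background. Leukemia cells (NOMO1 or SEM at 500 cells/well, P12-Ichikawa at 1000 cells/well) were adapted for at least four passages in each medium and seeded in 1536-well plates (5 μl). Library compounds in DMSO were pin-dosed over an 11-point threefold series from 47 μM to 0.79 nM, and CellTiter-Glo One luminescence was read after 48 h at 37°C.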

[5] = test system: P12-Ichikawa; test: as above
Outline: as §2

[6] = test system: SEM cells; test: as above
Outline: as §2

C[S+](=O)([O-])Nc1ccc([N+](=O)[O-])cc1Oc1ccccc1
AUC of viability dose-response curve
Conditions	[1]	[2]	[3]
HPLM + 10% dialyzed FBS	452	461	467
RPMI 5 mM glucose + 10% FBS	465	456	449
RPMI 5 mM glucose + 10% dialyzed FBS	464	460	464

cell viability [%]
Conditions	[4]	[5]	[6]
HPLM + 10% dialyzed FBS, 0.000781 µM	121	114	95.8
HPLM + 10% dialyzed FBS, 0.00234 µM	127	115	103
HPLM + 10% dialyzed FBS, 0.00702 µM	118	111	99.8
HPLM + 10% dialyzed FBS, 0.0211 µM	96.4	120	104
HPLM + 10% dialyzed FBS, 0.0632 µM	121	112	117
HPLM + 10% dialyzed FBS, 0.19 µM	116	115	121
HPLM + 10% dialyzed FBS, 0.569 µM	122	118	107
HPLM + 10% dialyzed FBS, 1.71 µM	107	109	104
HPLM + 10% dialyzed FBS, 5.12 µM	103	109	107
HPLM + 10% dialyzed FBS, 15.4 µM	101	102	109
HPLM + 10% dialyzed FBS, 46.1 µM	70.8	59.4	62.9
RPMI 5 mM glucose + 10% FBS, 0.000781 µM	109	122	88.4
RPMI 5 mM glucose + 10% FBS, 0.00234 µM	98.4	121	111
RPMI 5 mM glucose + 10% FBS, 0.00702 µM	104	120	98.6
RPMI 5 mM glucose + 10% FBS, 0.0211 µM	110	119	90.5
RPMI 5 mM glucose + 10% FBS, 0.0632 µM	108	120	106
RPMI 5 mM glucose + 10% FBS, 0.19 µM	93.5	122	95.7
RPMI 5 mM glucose + 10% FBS, 0.569 µM	104	116	108
RPMI 5 mM glucose + 10% FBS, 1.71 µM	96.7	111	105
RPMI 5 mM glucose + 10% FBS, 5.12 µM	101	116	103
RPMI 5 mM glucose + 10% FBS, 15.4 µM	98.1	112	82.7
RPMI 5 mM glucose + 10% FBS, 46.1 µM	60.6	28.5	17.2
RPMI 5 mM glucose + 10% dialyzed FBS, 0.000781 µM	103	110	103
RPMI 5 mM glucose + 10% dialyzed FBS, 0.00234 µM	116	108	112
RPMI 5 mM glucose + 10% dialyzed FBS, 0.00702 µM	96	114	124
RPMI 5 mM glucose + 10% dialyzed FBS, 0.0211 µM	112	113	110
RPMI 5 mM glucose + 10% dialyzed FBS, 0.0632 µM	101	121	109
RPMI 5 mM glucose + 10% dialyzed FBS, 0.19 µM	112	110	102
RPMI 5 mM glucose + 10% dialyzed FBS, 0.569 µM	98.2	117	95.8
RPMI 5 mM glucose + 10% dialyzed FBS, 1.71 µM	106	103	106
RPMI 5 mM glucose + 10% dialyzed FBS, 5.12 µM	110	106	106
RPMI 5 mM glucose + 10% dialyzed FBS, 15.4 µM	112	103	104
RPMI 5 mM glucose + 10% dialyzed FBS, 46.1 µM	47.1	48.7	54.3

CN1CCN(C2=Nc3cc(Cl)ccc3Nc3ccccc32)CC1
AUC of viability dose-response curve
Conditions	[1]	[2]	[3]
HPLM + 10% dialyzed FBS	463	477	459
RPMI 5 mM glucose + 10% FBS	471	472	428
RPMI 5 mM glucose + 10% dialyzed FBS	470	471	452

cell viability [%]
Conditions	[4]	[5]	[6]
HPLM + 10% dialyzed FBS, 0.000781 µM	103	102	85.6
HPLM + 10% dialyzed FBS, 0.00234 µM	100	105	93.8
HPLM + 10% dialyzed FBS, 0.00702 µM	110	108	108
HPLM + 10% dialyzed FBS, 0.0211 µM	111	108	107
HPLM + 10% dialyzed FBS, 0.0632 µM	116	91.6	83.2
HPLM + 10% dialyzed FBS, 0.19 µM	119	115	111
HPLM + 10% dialyzed FBS, 0.569 µM	113	116	109
HPLM + 10% dialyzed FBS, 1.71 µM	132	116	121
HPLM + 10% dialyzed FBS, 5.12 µM	112	106	113
HPLM + 10% dialyzed FBS, 15.4 µM	106	104	106
HPLM + 10% dialyzed FBS, 46.1 µM	59.3	94.4	25.6
RPMI 5 mM glucose + 10% FBS, 0.000781 µM	98.6	91.6	93
RPMI 5 mM glucose + 10% FBS, 0.00234 µM	94.3	120	96.1
RPMI 5 mM glucose + 10% FBS, 0.00702 µM	102	115	107
RPMI 5 mM glucose + 10% FBS, 0.0211 µM	98.4	120	96.1
RPMI 5 mM glucose + 10% FBS, 0.0632 µM	107	95.8	68.9
RPMI 5 mM glucose + 10% FBS, 0.19 µM	101	125	92.9
RPMI 5 mM glucose + 10% FBS, 0.569 µM	103	107	103
RPMI 5 mM glucose + 10% FBS, 1.71 µM	96.3	115	110
RPMI 5 mM glucose + 10% FBS, 5.12 µM	106	124	109
RPMI 5 mM glucose + 10% FBS, 15.4 µM	106	108	112
RPMI 5 mM glucose + 10% FBS, 46.1 µM	102	108	20.6
RPMI 5 mM glucose + 10% dialyzed FBS, 0.000781 µM	87.5	100	94.3
RPMI 5 mM glucose + 10% dialyzed FBS, 0.00234 µM	99.6	103	116
RPMI 5 mM glucose + 10% dialyzed FBS, 0.00702 µM	99.7	103	104
RPMI 5 mM glucose + 10% dialyzed FBS, 0.0211 µM	90.1	102	83.1
RPMI 5 mM glucose + 10% dialyzed FBS, 0.0632 µM	115	96.7	83.5
RPMI 5 mM glucose + 10% dialyzed FBS, 0.19 µM	106	112	118
RPMI 5 mM glucose + 10% dialyzed FBS, 0.569 µM	110	109	112
RPMI 5 mM glucose + 10% dialyzed FBS, 1.71 µM	99.3	116	123
RPMI 5 mM glucose + 10% dialyzed FBS, 5.12 µM	103	105	110
RPMI 5 mM glucose + 10% dialyzed FBS, 15.4 µM	97.9	108	92
RPMI 5 mM glucose + 10% dialyzed FBS, 46.1 µM	78.4	93.2	22.5
